In ChEMBL document CHEMBL1201862, “PubChem BioAssay data set” (2004):
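Following 48 hours of exposure in 96-well plates, responses at five concentrations were used to interpolate endpoints linearly. GI50 marks 50% less growth.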 Active and inactive are the calls of the source. Rule as the data show it: active = GI50 up to about 1.1 µM and inactive = higher.

Columns and labels:
Assay in all cases: DTP human tumour cell line panel, 48 h
M14 = test system: M14
K562 = test system: K562
SNB-75 = test system: SNB-75
LOX IMVI = test system: LOX IMVI
HCT-116 = test system: HCT-116
SN12C = test system: SN12C
OVCAR-4 = test system: OVCAR-4
SK-MEL-2 = test system: SK-MEL-2
SR = test system: SR
A498 = test system: A498
CCRF-CEM = test system: CCRF-CEM
SK-MEL-5 = test system: SK-MEL-5
UACC-62 = test system: UACC-62
RPMI-8226 = test system: RPMI-8226
OVCAR-8 = test system: OVCAR-8
SNB-19 = test system: SNB-19
UO-31 = test system: UO-31
U-251 = test system: U-251

Measured: GI50

C/C(CCn1[nH]c(=O)ccc1=O)=N\OCCCc1ccccc1
inactive: M14 > 100 µM | K562 > 100 µM | SNB-75 > 100 µM | LOX IMVI > 100 µM | HCT-116 > 100 µM | SN12C > 100 µM | OVCAR-4 > 100 µM | SK-MEL-2 > 100 µM | SR > 100 µM | A498 > 100 µM | CCRF-CEM > 100 µM | SK-MEL-5 > 100 µM | UACC-62 > 100 µM | RPMI-8226 > 100 µM | OVCAR-8 > 100 µM | SNB-19 > 100 µM | UO-31 > 100 µM

Cc1ccc(NC(=O)CCc2nnc(S)[nH]2)cc1
inactive: M14 > 100 µM | K562 > 100 µM | SNB-75 83.2 µM | HCT-116 > 100 µM | SN12C > 100 µM | OVCAR-4 > 100 µM | SK-MEL-2 > 100 µM | SR > 100 µM | A498 > 100 µM | CCRF-CEM > 100 µM | SK-MEL-5 > 100 µM | UACC-62 17 µM | RPMI-8226 > 100 µM | OVCAR-8 > 100 µM | U-251 > 100 µM | SNB-19 > 100 µM | UO-31 > 100 µM

Fc1ccc(F)c(C2SCc3nc4ccccc4n32)c1 (stereo not given)
inactive: M14 72.1 µM | K562 37.1 µM | SNB-75 > 100 µM | LOX IMVI 65.6 µM | HCT-116 61 µM | SN12C > 100 µM | OVCAR-4 95.7 µM | SR 43.9 µM | A498 43.8 µM | CCRF-CEM 47.6 µM | SK-MEL-5 20.3 µM | UACC-62 91.6 µM | RPMI-8226 40 µM | OVCAR-8 > 100 µM | U-251 > 100 µM | SNB-19 > 100 µM | UO-31 41.3 µM

Cc1cc(O)c(C=O)c(C)c1CCC1(C)C=Cc2cc(O)ccc2O1 (stereo not given)
inactive: M14 17.5 µM | K562 24.3 µM | SNB-75 22.6 µM | LOX IMVI 19.6 µM | HCT-116 16.8 µM | SN12C 29.3 µM | OVCAR-4 21.9 µM | SK-MEL-2 24.1 µM | SR > 100 µM | A498 39.8 µM | CCRF-CEM 17.1 µM | SK-MEL-5 25.2 µM | UACC-62 16.7 µM | RPMI-8226 20.9 µM | OVCAR-8 17.1 µM | U-251 21.4 µM | SNB-19 38.9 µM

CS/C(=N\c1ccc([N+](=O)[O-])cc1C#N)NC(=O)c1ccccc1
inactive: M14 > 100 µM | K562 > 100 µM | SNB-75 28.4 µM | LOX IMVI 95.3 µM | HCT-116 > 100 µM | SN12C > 100 µM | OVCAR-4 > 100 µM | SR > 100 µM | A498 > 100 µM | CCRF-CEM > 100 µM | SK-MEL-5 > 100 µM | UACC-62 > 100 µM | RPMI-8226 > 100 µM | OVCAR-8 > 100 µM | U-251 > 100 µM | SNB-19 > 100 µM

COC(=O)C1C2C=CC(C2)N1[C@@H](C)c1ccccc1 (stereo not given in full)
inactive: M14 > 100 µM | K562 > 100 µM | SNB-75 > 100 µM | LOX IMVI > 100 µM | HCT-116 > 100 µM | SN12C > 100 µM | SK-MEL-2 > 100 µM | SR > 100 µM | A498 > 100 µM | CCRF-CEM > 100 µM | SK-MEL-5 > 100 µM | UACC-62 > 100 µM | RPMI-8226 > 100 µM | OVCAR-8 > 100 µM | U-251 > 100 µM | SNB-19 > 100 µM | UO-31 > 100 µM

Fc1ccc(/N=C2C=C/C(=N\c3ccc(F)cc3)c3ccccc3\2)cc1
inactive: M14 > 100 µM | K562 > 100 µM | SNB-75 > 100 µM | LOX IMVI > 100 µM | HCT-116 > 100 µM | SN12C > 100 µM | SK-MEL-2 > 100 µM | SR > 100 µM | A498 > 100 µM | CCRF-CEM > 100 µM | SK-MEL-5 > 100 µM | UACC-62 9.89 µM | RPMI-8226 > 100 µM | OVCAR-8 > 100 µM | U-251 > 100 µM | SNB-19 70.5 µM | UO-31 > 100 µM

CC(=O)N/C(=C\c1ccc(/C=C(\NC(C)=O)c2nc3cc(Cl)ccc3[nH]2)cc1)c1nc2ccccc2[nH]1
inactive: M14 > 100 µM | K562 > 100 µM | SNB-75 > 100 µM | HCT-116 > 100 µM | SN12C > 100 µM | SK-MEL-2 > 100 µM | SR > 100 µM | A498 > 100 µM | CCRF-CEM > 100 µM | SK-MEL-5 > 100 µM | UACC-62 > 100 µM | RPMI-8226 > 100 µM | OVCAR-8 > 100 µM | U-251 > 100 µM | SNB-19 > 100 µM

CN(CCN(C)C(=O)CCn1ccc(=O)[nH]c1=O)C(=O)CCn1ccc(=O)[nH]c1=O
inactive: M14 > 100 µM | K562 > 100 µM | SNB-75 22.4 µM | LOX IMVI > 100 µM | HCT-116 > 100 µM | SN12C > 100 µM | OVCAR-4 > 100 µM | SK-MEL-2 > 100 µM | SR > 100 µM | CCRF-CEM > 100 µM | SK-MEL-5 > 100 µM | UACC-62 > 100 µM | RPMI-8226 > 100 µM | OVCAR-8 > 100 µM | U-251 > 100 µM | SNB-19 > 100 µM | UO-31 > 100 µM

NNc1cnn(-c2ccccc2)c(=O)c1Cl
inactive: M14 > 100 µM | K562 > 100 µM | SNB-75 > 100 µM | LOX IMVI > 100 µM | HCT-116 > 100 µM | SN12C > 100 µM | OVCAR-4 > 100 µM | SK-MEL-2 > 100 µM | SR > 100 µM | A498 > 100 µM | CCRF-CEM > 100 µM | SK-MEL-5 > 100 µM | UACC-62 > 100 µM | RPMI-8226 > 100 µM | OVCAR-8 > 100 µM | U-251 > 100 µM | UO-31 > 100 µM

Nc1cn(C2OC(CC(c3ccccc3)(c3ccccc3)c3ccccc3)C(O)C2O)c(=O)[nH]c1=O (stereo not given)
inactive: M14 22.5 µM | K562 23.4 µM | SNB-75 > 100 µM | LOX IMVI 19.1 µM | HCT-116 17.6 µM | SN12C 22.1 µM | SK-MEL-2 28 µM | SR 18.7 µM | A498 39.6 µM | CCRF-CEM 23.3 µM | SK-MEL-5 20.5 µM | UACC-62 14.2 µM | RPMI-8226 18.7 µM | OVCAR-8 24.9 µM | U-251 17.7 µM | SNB-19 26.8 µM | UO-31 31.6 µM

O=C(O)C(Cc1ccccc1)N1C(=O)N/C(=C\c2ccc(F)cc2)C1=O (stereo not given)
inactive: M14 > 100 µM | K562 > 100 µM | SNB-75 > 100 µM | LOX IMVI > 100 µM | HCT-116 > 100 µM | SN12C > 100 µM | OVCAR-4 > 100 µM | SK-MEL-2 > 100 µM | SR > 100 µM | CCRF-CEM > 100 µM | SK-MEL-5 > 100 µM | UACC-62 36.7 µM | RPMI-8226 > 100 µM | OVCAR-8 > 100 µM | U-251 > 100 µM | UO-31 > 100 µM
